Test: xn = mol fraction of the nth substance listed
Conditions: 101 kPa, Liquid, Scientific instruments device model 9700

[I-].[K+] [potassium iodide] + C[S+](C)[O-]
Conditions | electrical conductivity [S/m]
293.15 K, x1 = 0.0001281 | 0.00573
293.15 K, x1 = 0.0001586 | 0.00687
293.15 K, x1 = 0.0003312 | 0.0147
293.15 K, x1 = 0.0006135 | 0.0267
293.15 K, x1 = 0.001095 | 0.0457
293.15 K, x1 = 0.002002 | 0.0778
293.15 K, x1 = 0.005707 | 0.183
293.15 K, x1 = 0.01 | 0.348
293.15 K, x1 = 0.0197 | 0.605
293.15 K, x1 = 0.04 | 0.8279
293.15 K, x1 = 0.0499 | 0.9283
293.15 K, x1 = 0.0707 | 0.9369
295.15 K, x1 = 0.0001281 | 0.00602
295.15 K, x1 = 0.0001586 | 0.00718
295.15 K, x1 = 0.0003312 | 0.0153
295.15 K, x1 = 0.0006135 | 0.0279
295.15 K, x1 = 0.001095 | 0.0475
295.15 K, x1 = 0.002002 | 0.0809
295.15 K, x1 = 0.005707 | 0.19
295.15 K, x1 = 0.01 | 0.362
295.15 K, x1 = 0.0197 | 0.632
295.15 K, x1 = 0.04 | 0.8651
295.15 K, x1 = 0.0499 | 0.9694
295.15 K, x1 = 0.0707 | 0.9785
297.15 K, x1 = 0.0001281 | 0.0063
297.15 K, x1 = 0.0001586 | 0.00749
297.15 K, x1 = 0.0003312 | 0.0159
297.15 K, x1 = 0.0006135 | 0.0291
297.15 K, x1 = 0.001095 | 0.0493
297.15 K, x1 = 0.002002 | 0.0841
297.15 K, x1 = 0.005707 | 0.198
297.15 K, x1 = 0.01 | 0.377
297.15 K, x1 = 0.0197 | 0.659
297.15 K, x1 = 0.04 | 0.9006
297.15 K, x1 = 0.0499 | 1.013
297.15 K, x1 = 0.0707 | 1.023
299.15 K, x1 = 0.0001281 | 0.00656
299.15 K, x1 = 0.0001586 | 0.00782
299.15 K, x1 = 0.0003312 | 0.0165
299.15 K, x1 = 0.0006135 | 0.0303
299.15 K, x1 = 0.001095 | 0.0511
299.15 K, x1 = 0.002002 | 0.0872
299.15 K, x1 = 0.005707 | 0.205
299.15 K, x1 = 0.01 | 0.392
299.15 K, x1 = 0.0197 | 0.686
299.15 K, x1 = 0.04 | 0.9366
299.15 K, x1 = 0.0499 | 1.051
299.15 K, x1 = 0.0707 | 1.067
301.15 K, x1 = 0.0001281 | 0.00683
301.15 K, x1 = 0.0001586 | 0.00814
301.15 K, x1 = 0.0003312 | 0.0171
301.15 K, x1 = 0.0006135 | 0.0315
301.15 K, x1 = 0.001095 | 0.0529
301.15 K, x1 = 0.002002 | 0.0904
301.15 K, x1 = 0.005707 | 0.213
301.15 K, x1 = 0.01 | 0.406
301.15 K, x1 = 0.0197 | 0.713
301.15 K, x1 = 0.04 | 0.9737
301.15 K, x1 = 0.0499 | 1.09
301.15 K, x1 = 0.0707 | 1.112
303.15 K, x1 = 0.0001281 | 0.00711
303.15 K, x1 = 0.0001586 | 0.00847
303.15 K, x1 = 0.0003312 | 0.0177
303.15 K, x1 = 0.0006135 | 0.0328
303.15 K, x1 = 0.001095 | 0.0547
303.15 K, x1 = 0.002002 | 0.0936
303.15 K, x1 = 0.005707 | 0.22
303.15 K, x1 = 0.01 | 0.421
303.15 K, x1 = 0.0197 | 0.741
303.15 K, x1 = 0.04 | 1.011
303.15 K, x1 = 0.0499 | 1.132
303.15 K, x1 = 0.0707 | 1.152
305.15 K, x1 = 0.0001281 | 0.00737
305.15 K, x1 = 0.0001586 | 0.0088
305.15 K, x1 = 0.0003312 | 0.0184
305.15 K, x1 = 0.0006135 | 0.034
305.15 K, x1 = 0.001095 | 0.0566
305.15 K, x1 = 0.002002 | 0.0969
305.15 K, x1 = 0.005707 | 0.228
305.15 K, x1 = 0.01 | 0.436
305.15 K, x1 = 0.0197 | 0.768
305.15 K, x1 = 0.04 | 1.047
305.15 K, x1 = 0.0499 | 1.169
305.15 K, x1 = 0.0707 | 1.199
307.15 K, x1 = 0.0001281 | 0.00763
307.15 K, x1 = 0.0001586 | 0.0092
307.15 K, x1 = 0.0003312 | 0.0191
307.15 K, x1 = 0.0006135 | 0.0352
307.15 K, x1 = 0.001095 | 0.0584
307.15 K, x1 = 0.002002 | 0.1
307.15 K, x1 = 0.005707 | 0.235
307.15 K, x1 = 0.01 | 0.451
307.15 K, x1 = 0.0197 | 0.794
307.15 K, x1 = 0.04 | 1.083
307.15 K, x1 = 0.0499 | 1.208
307.15 K, x1 = 0.0707 | 1.244
309.15 K, x1 = 0.0001281 | 0.0079
309.15 K, x1 = 0.0001586 | 0.00954
309.15 K, x1 = 0.0003312 | 0.0198
309.15 K, x1 = 0.0006135 | 0.0364
309.15 K, x1 = 0.001095 | 0.0603
309.15 K, x1 = 0.002002 | 0.103
309.15 K, x1 = 0.005707 | 0.243
309.15 K, x1 = 0.01 | 0.465
309.15 K, x1 = 0.0197 | 0.823
309.15 K, x1 = 0.04 | 1.124
309.15 K, x1 = 0.0499 | 1.246
309.15 K, x1 = 0.0707 | 1.286
311.15 K, x1 = 0.0001281 | 0.00818
311.15 K, x1 = 0.0001586 | 0.00991
311.15 K, x1 = 0.0003312 | 0.0205
311.15 K, x1 = 0.0006135 | 0.0376
311.15 K, x1 = 0.001095 | 0.0621
311.15 K, x1 = 0.002002 | 0.106
311.15 K, x1 = 0.005707 | 0.251
311.15 K, x1 = 0.01 | 0.48
311.15 K, x1 = 0.0197 | 0.849
311.15 K, x1 = 0.04 | 1.161
311.15 K, x1 = 0.0499 | 1.282
311.15 K, x1 = 0.0707 | 1.342
313.15 K, x1 = 0.0001281 | 0.00848
313.15 K, x1 = 0.0001586 | 0.0103
313.15 K, x1 = 0.0003312 | 0.0212
313.15 K, x1 = 0.0006135 | 0.0389
313.15 K, x1 = 0.001095 | 0.064
313.15 K, x1 = 0.002002 | 0.11
313.15 K, x1 = 0.005707 | 0.258
313.15 K, x1 = 0.01 | 0.494
313.15 K, x1 = 0.0197 | 0.874
313.15 K, x1 = 0.04 | 1.195
313.15 K, x1 = 0.0499 | 1.319
313.15 K, x1 = 0.0707 | 1.374
315.15 K, x1 = 0.0001281 | 0.00879
315.15 K, x1 = 0.0001586 | 0.0107
315.15 K, x1 = 0.0003312 | 0.022
315.15 K, x1 = 0.0006135 | 0.0401
315.15 K, x1 = 0.001095 | 0.0658
315.15 K, x1 = 0.002002 | 0.113
315.15 K, x1 = 0.005707 | 0.266
315.15 K, x1 = 0.01 | 0.508
315.15 K, x1 = 0.0197 | 0.9
315.15 K, x1 = 0.04 | 1.233
315.15 K, x1 = 0.0499 | 1.366
315.15 K, x1 = 0.0707 | 1.408
317.15 K, x1 = 0.0001281 | 0.00918
317.15 K, x1 = 0.0001586 | 0.011
317.15 K, x1 = 0.0003312 | 0.0227
317.15 K, x1 = 0.0006135 | 0.0413
317.15 K, x1 = 0.001095 | 0.0676
317.15 K, x1 = 0.002002 | 0.116
317.15 K, x1 = 0.005707 | 0.274
317.15 K, x1 = 0.01 | 0.522
317.15 K, x1 = 0.0197 | 0.922
317.15 K, x1 = 0.04 | 1.271
317.15 K, x1 = 0.0499 | 1.39
317.15 K, x1 = 0.0707 | 1.469
319.15 K, x1 = 0.0001281 | 0.00954
319.15 K, x1 = 0.0001586 | 0.0114
319.15 K, x1 = 0.0003312 | 0.0236
319.15 K, x1 = 0.0006135 | 0.0424
319.15 K, x1 = 0.001095 | 0.0694
319.15 K, x1 = 0.002002 | 0.119
319.15 K, x1 = 0.005707 | 0.281
319.15 K, x1 = 0.01 | 0.536
319.15 K, x1 = 0.0197 | 0.945
319.15 K, x1 = 0.04 | 1.309
319.15 K, x1 = 0.0499 | 1.434
319.15 K, x1 = 0.0707 | 1.527
321.15 K, x1 = 0.0001281 | 0.01
321.15 K, x1 = 0.0001586 | 0.0118
321.15 K, x1 = 0.0003312 | 0.0245
321.15 K, x1 = 0.0006135 | 0.0436
321.15 K, x1 = 0.001095 | 0.0712
321.15 K, x1 = 0.002002 | 0.122
321.15 K, x1 = 0.005707 | 0.289
321.15 K, x1 = 0.01 | 0.549
321.15 K, x1 = 0.0197 | 0.968
321.15 K, x1 = 0.04 | 1.344
321.15 K, x1 = 0.0499 | 1.466
321.15 K, x1 = 0.0707 | 1.567
323.15 K, x1 = 0.0001281 | 0.0104
323.15 K, x1 = 0.0001586 | 0.0122
323.15 K, x1 = 0.0003312 | 0.0254
323.15 K, x1 = 0.0006135 | 0.0447
323.15 K, x1 = 0.001095 | 0.0729
323.15 K, x1 = 0.002002 | 0.125
323.15 K, x1 = 0.005707 | 0.296
323.15 K, x1 = 0.01 | 0.563
323.15 K, x1 = 0.0197 | 0.988
323.15 K, x1 = 0.04 | 1.386
323.15 K, x1 = 0.0499 | 1.523
323.15 K, x1 = 0.0707 | 1.607
